Measurements from PubChem BioAssay AID2060912 (Molecular Pharmacology Branch, DTP, NCI, 2025).

System: HUVEC/MSC spheroids viability
Experiment: Human HUVEC/MSC cell line growth inhibition [KRAS2];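 for viability, T/C: percent of DMSO vehicle control luminescence so 100% = untreated viability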
Details: for IC50: curve of first compound; for viability, T/C: stronger effect = lower value
Summary of the method: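 Stroma-only multicellular spheroids, formed from HUVEC and human MSCs at passages </=5, received RAS-pathway inhibitors with or without a second targeted drug. Dosing followed half-log dilutions from clinically achievable levels.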

[1] = second compound 0.0316 µM, first compound 0.0316 µM
[2] = second compound 0.0316 µM, first compound 0.1 µM
[3] = second compound 0.1 µM, first compound 0.0316 µM
[4] = second compound 0.1 µM, first compound 0.1 µM
[5] = second compound 0.316 µM, first compound 0.0316 µM
[6] = second compound 0.316 µM, first compound 0.1 µM
[7] = second compound 1 µM, first compound 0.0316 µM
[8] = second compound 1 µM, first compound 0.1 µM
[9] = second compound 3.16 µM, first compound 0.0316 µM
[10] = second compound 3.16 µM, first compound 0.1 µM
[11] = second compound 10 µM, first compound 0.0316 µM
[12] = second compound 10 µM, first compound 0.1 µM

CC(=O)OC12COC1CC(O)C1(C)C(=O)C(O)C3=C(C)C(OC(=O)C(O)C(NC(=O)OC(C)(C)C)c4ccccc4)CC(O)(C(OC(=O)c4ccccc4)C21)C3(C)C (stereo unspecified) + CC1OCC2(CCN(c3cnc(Sc4ccnc(N)c4Cl)c(N)n3)CC2)C1N
IC50 (second compound 0.0316 µM): > 3 µM
IC50 (second compound 0.1 µM): > 3 µM
IC50 (second compound 0.316 µM): > 3 µM
IC50 (second compound 1 µM): > 3 µM
IC50 (second compound 3.16 µM): > 3 µM
IC50 (second compound 10 µM): 0.176 µM
viability, T/C (second compound 0.0316 µM, first compound 0.00949 µM): 58%
viability, T/C (second compound 0.0316 µM, first compound 0.03 µM): 65.1%
viability, T/C (second compound 0.0316 µM, first compound 0.0949 µM): 67.3%
viability, T/C (second compound 0.0316 µM, first compound 0.3 µM): 58.4%
viability, T/C (second compound 0.0316 µM, first compound 0.949 µM): 68.1%
viability, T/C (second compound 0.0316 µM, first compound 3 µM): 73.6%
viability, T/C (second compound 0.1 µM, first compound 0.00949 µM): 67%
viability, T/C (second compound 0.1 µM, first compound 0.03 µM): 66%
viability, T/C (second compound 0.1 µM, first compound 0.0949 µM): 71.4%
viability, T/C (second compound 0.1 µM, first compound 0.3 µM): 57.9%
viability, T/C (second compound 0.1 µM, first compound 0.949 µM): 73.2%
viability, T/C (second compound 0.1 µM, first compound 3 µM): 72.5%
viability, T/C (second compound 0.316 µM, first compound 0.00949 µM): 56.1%
viability, T/C (second compound 0.316 µM, first compound 0.03 µM): 63.3%
viability, T/C (second compound 0.316 µM, first compound 0.0949 µM): 50%
viability, T/C (second compound 0.316 µM, first compound 0.3 µM): 53.6%
viability, T/C (second compound 0.316 µM, first compound 0.949 µM): 62.5%
viability, T/C (second compound 0.316 µM, first compound 3 µM): 68.4%
viability, T/C (second compound 1 µM, first compound 0.00949 µM): 67.2%
viability, T/C (second compound 1 µM, first compound 0.03 µM): 58%
viability, T/C (second compound 1 µM, first compound 0.0949 µM): 47.1%
viability, T/C (second compound 1 µM, first compound 0.3 µM): 52.1%
viability, T/C (second compound 1 µM, first compound 0.949 µM): 59%
viability, T/C (second compound 1 µM, first compound 3 µM): 58.5%
viability, T/C (second compound 3.16 µM, first compound 0.00949 µM): 49.8%
viability, T/C (second compound 3.16 µM, first compound 0.03 µM): 59.5%
viability, T/C (second compound 3.16 µM, first compound 0.0949 µM): 49.8%
viability, T/C (second compound 3.16 µM, first compound 0.3 µM): 54.2%
viability, T/C (second compound 3.16 µM, first compound 0.949 µM): 48%
viability, T/C (second compound 3.16 µM, first compound 3 µM): 56.2%
viability, T/C (second compound 10 µM, first compound 0.00949 µM): 55.6%
viability, T/C (second compound 10 µM, first compound 0.03 µM): 61.8%
viability, T/C (second compound 10 µM, first compound 0.0949 µM): 41.7%
viability, T/C (second compound 10 µM, first compound 0.3 µM): 50.3%
viability, T/C (second compound 10 µM, first compound 0.949 µM): 50.9%
viability, T/C (second compound 10 µM, first compound 3 µM): 46.7%

CN(C)C/C=C/C(=O)Nc1cc2c(Nc3ccc(F)c(Cl)c3)ncnc2cc1O[C@H]1CCOC1 + CC1OCC2(CCN(c3cnc(Sc4ccnc(N)c4Cl)c(N)n3)CC2)C1N
IC50 (second compound 0.0316 µM): > 0.1 µM
IC50 (second compound 0.1 µM): > 0.1 µM
IC50 (second compound 0.316 µM): > 0.1 µM
IC50 (second compound 1 µM): > 0.1 µM
IC50 (second compound 3.16 µM): > 0.1 µM
IC50 (second compound 10 µM): > 0.1 µM
viability, T/C (second compound 0.0316 µM, first compound 0.000316 µM): 110%
viability, T/C (second compound 0.0316 µM, first compound 0.001 µM): 123%
viability, T/C (second compound 0.0316 µM, first compound 0.00316 µM): 121%
viability, T/C (second compound 0.0316 µM, first compound 0.01 µM): 103%
viability, T/C [1]: 99.1%
viability, T/C [2]: 117%
viability, T/C (second compound 0.1 µM, first compound 0.000316 µM): 108%
viability, T/C (second compound 0.1 µM, first compound 0.001 µM): 148%
viability, T/C (second compound 0.1 µM, first compound 0.00316 µM): 105%
viability, T/C (second compound 0.1 µM, first compound 0.01 µM): 110%
viability, T/C [3]: 98.7%
viability, T/C [4]: 126%
viability, T/C (second compound 0.316 µM, first compound 0.000316 µM): 108%
viability, T/C (second compound 0.316 µM, first compound 0.001 µM): 114%
viability, T/C (second compound 0.316 µM, first compound 0.00316 µM): 99.4%
viability, T/C (second compound 0.316 µM, first compound 0.01 µM): 99.3%
viability, T/C [5]: 101%
viability, T/C [6]: 126%
viability, T/C (second compound 1 µM, first compound 0.000316 µM): 92.6%
viability, T/C (second compound 1 µM, first compound 0.001 µM): 118%
viability, T/C (second compound 1 µM, first compound 0.00316 µM): 106%
viability, T/C (second compound 1 µM, first compound 0.01 µM): 86.8%
viability, T/C [7]: 102%
viability, T/C [8]: 108%
viability, T/C (second compound 3.16 µM, first compound 0.000316 µM): 79.7%
viability, T/C (second compound 3.16 µM, first compound 0.001 µM): 96.2%
viability, T/C (second compound 3.16 µM, first compound 0.00316 µM): 77.9%
viability, T/C (second compound 3.16 µM, first compound 0.01 µM): 94.1%
viability, T/C [9]: 89.2%
viability, T/C [10]: 103%
viability, T/C (second compound 10 µM, first compound 0.000316 µM): 71.7%
viability, T/C (second compound 10 µM, first compound 0.001 µM): 85.9%
viability, T/C (second compound 10 µM, first compound 0.00316 µM): 66.5%
viability, T/C (second compound 10 µM, first compound 0.01 µM): 66.3%
viability, T/C [11]: 80.9%
viability, T/C [12]: 89.3%

O=C(c1cc(Cc2n[nH]c(=O)c3ccccc23)ccc1F)N1CCN(C(=O)C2CC2)CC1 + CC1OCC2(CCN(c3cnc(Sc4ccnc(N)c4Cl)c(N)n3)CC2)C1N
IC50 (second compound 0.0316 µM): > 10 µM
IC50 (second compound 0.1 µM): > 10 µM
IC50 (second compound 0.316 µM): > 10 µM
IC50 (second compound 1 µM): > 10 µM
IC50 (second compound 3.16 µM): > 10 µM
IC50 (second compound 10 µM): > 10 µM
viability, T/C [1]: 102%
viability, T/C [2]: 117%
viability, T/C (second compound 0.0316 µM, first compound 0.316 µM): 100%
viability, T/C (second compound 0.0316 µM, first compound 1 µM): 98.7%
viability, T/C (second compound 0.0316 µM, first compound 3.16 µM): 101%
viability, T/C (second compound 0.0316 µM, first compound 10 µM): 132%
viability, T/C [3]: 101%
viability, T/C [4]: 101%
viability, T/C (second compound 0.1 µM, first compound 0.316 µM): 104%
viability, T/C (second compound 0.1 µM, first compound 1 µM): 108%
viability, T/C (second compound 0.1 µM, first compound 3.16 µM): 109%
viability, T/C (second compound 0.1 µM, first compound 10 µM): 94.6%
viability, T/C [5]: 102%
viability, T/C [6]: 119%
viability, T/C (second compound 0.316 µM, first compound 0.316 µM): 99%
viability, T/C (second compound 0.316 µM, first compound 1 µM): 101%
viability, T/C (second compound 0.316 µM, first compound 3.16 µM): 88%
viability, T/C (second compound 0.316 µM, first compound 10 µM): 89.4%
viability, T/C [7]: 85.4%
viability, T/C [8]: 110%
viability, T/C (second compound 1 µM, first compound 0.316 µM): 95.6%
viability, T/C (second compound 1 µM, first compound 1 µM): 87.2%
viability, T/C (second compound 1 µM, first compound 3.16 µM): 86.6%
viability, T/C (second compound 1 µM, first compound 10 µM): 88.4%
viability, T/C [9]: 74.2%
viability, T/C [10]: 96.3%
viability, T/C (second compound 3.16 µM, first compound 0.316 µM): 91.8%
viability, T/C (second compound 3.16 µM, first compound 1 µM): 89.8%
viability, T/C (second compound 3.16 µM, first compound 3.16 µM): 98.1%
viability, T/C (second compound 3.16 µM, first compound 10 µM): 90.8%
viability, T/C [11]: 72.5%
viability, T/C [12]: 79.7%
viability, T/C (second compound 10 µM, first compound 0.316 µM): 79.9%
viability, T/C (second compound 10 µM, first compound 1 µM): 67.6%
viability, T/C (second compound 10 µM, first compound 3.16 µM): 81.5%
viability, T/C (second compound 10 µM, first compound 10 µM): 76.4%
